Where “and” joins values, the source holds several entries; their conditions need not be identical. Identical values can stand only once. Like-named read-outs stand apart in the source and are kept apart here.
What was measured:
[1] = test system: HEK293T cells; experiment: Drug sensitivity assay (CellTiter-Glo viability) with or without MLN4924 pretreatment; type: cell-based, human; conditions: Supplementary Table 2; for EC50: Homo sapiens, HEK-293T, HEK293T viability, 72 h, compound alone, read-out: Cellular assays EC50; for Toxicity rescue: MLN4924-mediated cytotoxicity rescue, 10 µM used where n.d.
Outline: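 HEK293T–Cas9 cells at 0.15 × 10^6 ml^−1 were treated with DMSO or 100 nM MLN4924 before plating. Test drugs were added 2 h later and exposure lasted 3 days. Viability was read by CellTiter-Glo luminescence and expressed relative to DMSO controls.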

[2] = target: T1, CDK12–cyclin K and DDB1 (Homo sapiens, UniProt Q16531+Q9NYV4, K965R); experiment: TR-FRET ternary complex formation assay (compound titration); type: binding
T1 construct: His6–CDK12 (a.a. 713–1,052); full-length or beta-propeller B domain deletion (ΔBPB: a.a. 396–705 deleted) constructs of His6–DDB1ΔBPB, StrepII–Avi–DDB1, or His6–Spy–DDB1; made in house; host or cells: Trichoplusia ni High Five insect cells (baculovirus)
Outline: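 Read-out used a 70 μs delay to cut background fluorescence; TR-FRET signal taken as the 520 nm/490 nm emission ratio.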

[3] = test system: cyclin K–eGFP degradation reporter; experiment: Cyclin K reporter stability analysis (dual-color cyclin K–eGFP reporter); type: cell-based, human; conditions: Supplementary Table 2; HEK293T cycK-eGFP reporter, 5 h; read-out: Cellular assays DC50
Experimental: HEK293T–Cas9 cells expressing the cyclin K–eGFP degradation reporter were resuspended at 1 × 10^6 ml^−1 and 50 µl of cell suspension was seeded in non-cell-culture-treated 384-well plates. Shortly after, cells were treated with drug or DMSO for 5 h. […] The fluorescent signal was quantified by flow cytometry (LSRFortessa flow cytometer, BD Biosciences). Using FlowJo (flow cytometry analysis software, BD Biosciences), the geometric mean of the eGFP and mCherry fluorescent signal for round and mCherry-positive cells was calculated. The ratio of eGFP to mCherry was normalized to the average of three DMSO-treated controls.

[4] = compound concentration 79.2001 nM
[5] = compound concentration 158.4 nM
[6] = compound concentration 309.6 nM
[7] = compound concentration 626.401 nM
[8] = compound concentration 1252.8 nM
[9] = compound concentration 9936.01 nM
[10] = compound concentration 20016 nM
[11] = sheet MOESM7, read-out: log TR-FRET EC50 (converted)

T1 sequence (Q9NYV4 713-1052 K965R): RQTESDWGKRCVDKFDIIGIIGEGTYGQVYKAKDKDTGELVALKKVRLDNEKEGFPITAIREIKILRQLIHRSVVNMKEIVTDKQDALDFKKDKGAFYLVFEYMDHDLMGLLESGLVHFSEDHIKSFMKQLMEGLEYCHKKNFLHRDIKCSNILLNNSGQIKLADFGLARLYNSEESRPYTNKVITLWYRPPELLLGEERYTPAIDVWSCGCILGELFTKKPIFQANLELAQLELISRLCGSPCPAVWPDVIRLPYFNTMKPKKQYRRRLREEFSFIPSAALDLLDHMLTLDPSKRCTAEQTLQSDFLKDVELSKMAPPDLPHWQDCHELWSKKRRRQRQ
T1 sequence (O75909 1-267 partner): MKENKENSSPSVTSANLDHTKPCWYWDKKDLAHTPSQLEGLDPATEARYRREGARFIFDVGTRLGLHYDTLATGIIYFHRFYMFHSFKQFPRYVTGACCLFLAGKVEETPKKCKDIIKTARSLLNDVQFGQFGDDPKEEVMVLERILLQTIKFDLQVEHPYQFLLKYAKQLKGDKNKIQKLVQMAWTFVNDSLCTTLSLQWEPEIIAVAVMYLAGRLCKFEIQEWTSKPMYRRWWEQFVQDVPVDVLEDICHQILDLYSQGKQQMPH
T1 sequence (Q16531 whole entry): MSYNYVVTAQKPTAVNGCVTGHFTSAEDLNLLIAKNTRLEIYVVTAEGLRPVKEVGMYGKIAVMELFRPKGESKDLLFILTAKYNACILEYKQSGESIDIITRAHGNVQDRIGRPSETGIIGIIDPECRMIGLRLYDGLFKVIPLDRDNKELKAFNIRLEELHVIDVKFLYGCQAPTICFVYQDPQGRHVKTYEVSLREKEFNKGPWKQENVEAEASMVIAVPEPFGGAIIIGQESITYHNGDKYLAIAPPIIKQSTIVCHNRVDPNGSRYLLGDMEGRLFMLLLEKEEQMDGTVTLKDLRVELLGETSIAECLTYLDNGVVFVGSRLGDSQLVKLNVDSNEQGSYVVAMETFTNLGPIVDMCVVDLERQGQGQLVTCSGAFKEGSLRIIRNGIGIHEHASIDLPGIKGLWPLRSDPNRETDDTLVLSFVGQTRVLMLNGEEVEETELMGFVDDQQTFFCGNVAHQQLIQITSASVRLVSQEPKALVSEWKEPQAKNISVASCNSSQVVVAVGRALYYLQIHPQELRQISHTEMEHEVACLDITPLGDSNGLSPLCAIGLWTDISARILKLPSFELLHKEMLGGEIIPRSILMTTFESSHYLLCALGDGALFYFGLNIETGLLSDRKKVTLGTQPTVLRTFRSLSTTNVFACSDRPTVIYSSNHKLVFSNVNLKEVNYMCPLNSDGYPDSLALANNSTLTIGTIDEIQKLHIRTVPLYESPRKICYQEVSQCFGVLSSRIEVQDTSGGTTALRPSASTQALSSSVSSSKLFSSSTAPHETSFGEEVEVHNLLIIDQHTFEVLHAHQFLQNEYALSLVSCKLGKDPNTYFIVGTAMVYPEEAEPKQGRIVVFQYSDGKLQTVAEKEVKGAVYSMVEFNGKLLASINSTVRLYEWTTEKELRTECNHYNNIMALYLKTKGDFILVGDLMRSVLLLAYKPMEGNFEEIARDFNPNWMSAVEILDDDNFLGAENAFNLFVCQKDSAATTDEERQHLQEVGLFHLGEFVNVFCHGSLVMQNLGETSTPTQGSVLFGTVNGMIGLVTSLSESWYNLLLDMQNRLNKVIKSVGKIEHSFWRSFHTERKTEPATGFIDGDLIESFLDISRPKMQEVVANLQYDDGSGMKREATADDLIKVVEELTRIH

| TR-FRET signal, individual replicate ([2]; compound concentration 4.68 nM) | TR-FRET signal, individual replicate ([2]; compound concentration 21.6 nM) | TR-FRET signal, individual replicate ([2]; compound concentration 36 nM) | TR-FRET signal, individual replicate [2, 4] | TR-FRET signal, individual replicate [2, 5] | TR-FRET signal, individual replicate [2, 6] | TR-FRET signal, individual replicate [2, 7] | TR-FRET signal, individual replicate [2, 8] | TR-FRET signal, individual replicate ([2]; compound concentration 2448 nM) | TR-FRET signal, individual replicate [2, 9] | TR-FRET signal, individual replicate [2, 10] | EC50 [2, 11] | DC50 [3] | Compound | EC50 [1] | Toxicity rescue [1] | further results |
| --- | --- | --- | --- | --- | --- | --- | --- | --- | --- | --- | --- | --- | --- | --- | --- | --- |
| 0.1399 and 0.1627 and 0.1459 and 0.1432 | 0.173 and 0.1922 and 0.1723 and 0.1754 | 0.2228 and 0.253 and 0.2242 and 0.2297 | 0.3087 and 0.3318 and 0.3304 and 0.3159 | 0.4597 and 0.4851 and 0.4992 and 0.3486 | 0.6961 and 0.632 and 0.7161 and 0.7436 | 0.9481 and 0.8335 and 0.9996 and 0.9936 | 1.125 and 0.8632 and 1.358 and 1.356 | 1.642 and 1.809 and 1.711 and 1.743 | 2.02 and 2.174 and 2.025 and 2.055 | 2.092 and 2.228 and 2.285 and 2.284 | 1.16 µM | > 10 µM | CCCCCCCCNc1nc(N[C@H](CC)CO)nc2c1ncn2C(C)C [DS06] | > 10 µM | 0% | TR-FRET signal ([2]; compound concentration 4.68 nM): 0.1399 and 0.1627 and 0.1459 and 0.1432; TR-FRET signal ([2]; compound concentration 21.6 nM): 0.173 and 0.1922 and 0.1723 and 0.1754; TR-FRET signal ([2]; compound concentration 36 nM): 0.2228 and 0.253 and 0.2242 and 0.2297; TR-FRET signal [2, 4]: 0.3087 and 0.3318 and 0.3304 and 0.3159; TR-FRET signal [2, 5]: 0.4597 and 0.4851 and 0.4992 and 0.3486; TR-FRET signal [2, 6]: 0.6961 and 0.632 and 0.7161 and 0.7436; TR-FRET signal [2, 7]: 0.9481 and 0.8335 and 0.9996 and 0.9936; TR-FRET signal [2, 8]: 1.125 and 0.8632 and 1.358 and 1.356; TR-FRET signal ([2]; compound concentration 2448 nM): 1.642 and 1.809 and 1.711 and 1.743; TR-FRET signal [2, 9]: 2.02 and 2.174 and 2.025 and 2.055; TR-FRET signal [2, 10]: 2.092 and 2.228 and 2.285 and 2.284; EC50 ([2]; in vitro complex formation, 50 nM CDK12–cyclin K, 100 nM DDB1, text and figures, read-out: TR-FRET EC50): 1.16 µM |
| 0.1397 and 0.1571 | 0.1381 and 0.1543 | 0.1446 and 0.1595 | 0.1442 and 0.1633 | 0.1697 and 0.1741 | 0.1833 and 0.1813 | 0.2131 and 0.2 | 0.2455 and 0.2204 | 0.2509 and 0.2343 | 0.2701 and 0.2518 | 0.2482 and 0.2271 | 0.285 µM | > 10 µM | CC[C@H](CO)Nc1nc(NCc2ccc(CN(C)C)cc2)c2ncn(C(C)C)c2n1 [DS07] | > 10 µM | 0% | EC50 ([2]; Supplementary Table 2, read-out: TR-FRET EC50 TR-FRET): 0.285 µM |

Source: article PMC10746543, “Design principles for cyclin K molecular glue degraders” (Nature Chemical Biology, 2023)
